Source: patent publication EP0454461A1, “Selective amplification system using Q beta replicase, a hybridization assay and a method of detecting and assessing concentration of target nucleic acid in liquid samples” (GENE-TRAK SYSTEMS CORPORATION, priority 1990, dated 1991)

Tests used:
[1] = test system: Qβ replicase; experiment: Inhibition by dyes of MDV-1 replication in linear-phase Qβ replicase reactions; assay type: biochemical, bacteriophage Qβ; conditions: about 3µg/ml dye; MDV-1 template
Method: A number of dyes, including ethidium bromide, ethidium bromide homodimer, propidium iodide, proflavine, quinacrine, Hoescht 33258 (bis-benzamidine), dimidium bromide and acridine orange, were tested for their ability to inhibit the replication of MDV-1 in linear-phase reactions, i.e., where the template RNA is present in excess over the enzyme and the amount of replicated RNA thus increases linearly with time. […] One of the strongest inhibitors, propidium iodide, was selected for further study. A concentration of dye producing a 70% inhibition of replication, about 3µg/ml, is sufficiently low to allow detection of the fluorescence increase produced when the dye binds to the RNA products of the reaction.

[2] = test system: Qβ replicase; experiment: Effect of propidium iodide on replication of wild type MDV-1 RNA in a Qβ replicase preparation (32P-CTP incorporation, geometric phase); assay type: biochemical, bacteriophage Qβ; conditions: wild type MDV-1 template
Method: Propidium iodide was tested for its effect on the replication of wild type RNA in a preparation of Qβ replicase. Propidium iodide in an amount of either 0, 1, or 3µg/ml was added to a reaction buffer containing: 90mM Tris HC1 (pH7.5), 14mM MgC1₂, 0.4mM each ATP, GTP, UTP, and CTP, and 10µCi α-³²P-CTP. The Qβ replicase reaction was initiated in each sample by addition of 1.2µg of Qβ replicase prepared according to the method of Eoyang and August, (1972), ibid. Aliquots of the reaction mixture were withdrawn every 5 minutes and spotted on DE81 filters (Schleicher & Schuell Inc., Keene, NH). The spotted filters were washed repeatedly with 0.5M NaPO₄, (pH7.0) to remove unincorporated nucleotide. The filters were counted for Cerenkov radiation by standard procedures in a scintillation counter. Addition of propidium iodide delayed the point in time at which levels of incorporation resulting from the replication of wild type MDV-1 template became detectable. One microgram per milliter delayed the appearance of replicated product between about 2-5 minutes, which corresponds to about 20-50% inhibition of the rate of replication in the geometric phase, and 3µg/ml delayed the appearance of product for about 20 minutes, which corresponds to approximately a 3-fold reduction in the rate of replication.

## CC[N+](C)(CC)CCC[n+]1c(-c2ccccc2)c2cc(N)ccc2c2ccc(N)cc21 [propidium iodide]
[1]
  inhibition of replication: 70%
[2]; 1 µg/ml propidium iodide
  delay of the appearance of replicated product: 2 to 5 min
  inhibition of the rate of replication in the geometric phase: 20-50%
[2]; 3µg/ml propidium iodide
  delay of the appearance of product: about 20 minutes
  reduction in the rate of replication: ~3 fold
